The target of one assay is ALPK1 (Homo sapiens, UniProt Q96QP1). Briefly: TR-FRET (HTRF) kinase assay. Particulars: 6.25 µM ATP, 20 nM ADP-D-heptose.
Sequence of ALPK1 (Q96QP1 whole entry): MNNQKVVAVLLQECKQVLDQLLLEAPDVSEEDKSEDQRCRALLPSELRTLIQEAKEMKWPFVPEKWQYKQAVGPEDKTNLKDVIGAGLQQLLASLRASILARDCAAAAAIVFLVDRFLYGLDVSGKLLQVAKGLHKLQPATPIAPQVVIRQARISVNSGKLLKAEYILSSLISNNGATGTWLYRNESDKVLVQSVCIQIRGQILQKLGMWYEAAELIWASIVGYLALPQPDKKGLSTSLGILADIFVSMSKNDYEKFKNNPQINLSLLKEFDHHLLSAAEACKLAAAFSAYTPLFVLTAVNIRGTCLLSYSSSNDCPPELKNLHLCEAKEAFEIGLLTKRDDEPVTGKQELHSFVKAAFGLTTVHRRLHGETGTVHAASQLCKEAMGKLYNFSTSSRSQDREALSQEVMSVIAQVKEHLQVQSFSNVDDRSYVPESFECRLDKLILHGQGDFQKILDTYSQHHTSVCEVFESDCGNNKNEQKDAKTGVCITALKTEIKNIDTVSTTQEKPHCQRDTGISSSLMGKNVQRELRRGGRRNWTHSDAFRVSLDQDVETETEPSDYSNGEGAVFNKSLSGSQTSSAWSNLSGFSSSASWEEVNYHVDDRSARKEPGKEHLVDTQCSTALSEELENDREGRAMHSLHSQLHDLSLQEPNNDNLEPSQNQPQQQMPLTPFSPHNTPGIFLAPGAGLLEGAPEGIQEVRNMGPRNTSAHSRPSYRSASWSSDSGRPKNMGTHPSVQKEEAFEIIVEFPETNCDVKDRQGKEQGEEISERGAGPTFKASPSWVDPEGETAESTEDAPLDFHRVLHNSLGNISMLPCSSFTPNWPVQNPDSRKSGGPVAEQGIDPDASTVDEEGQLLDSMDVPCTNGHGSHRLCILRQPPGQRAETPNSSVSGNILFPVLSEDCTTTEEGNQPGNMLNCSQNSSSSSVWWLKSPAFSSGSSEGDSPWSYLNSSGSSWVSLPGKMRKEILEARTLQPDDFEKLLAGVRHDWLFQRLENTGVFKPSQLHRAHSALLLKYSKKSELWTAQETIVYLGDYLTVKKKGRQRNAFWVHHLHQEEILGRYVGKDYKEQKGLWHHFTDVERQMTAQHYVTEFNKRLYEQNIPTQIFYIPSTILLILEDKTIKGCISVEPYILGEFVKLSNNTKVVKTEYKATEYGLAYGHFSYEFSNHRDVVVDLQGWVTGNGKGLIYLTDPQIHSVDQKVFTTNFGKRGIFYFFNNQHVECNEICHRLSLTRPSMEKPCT
Description: The 10 µL kinase reactions were allowed to proceed for 1.5 h at 27 °C. Kinase reactions were terminated by adding 10 µL of the HTRF KinEASE detection kit buffer (Cisbio, Bedford, MA, USA; 62SDBRDF) containing monoclonal anti-HA-Eu cryptate (Cisbio; 610HAKLB) and monoclonal Anti HA-d2 to each well. TIFA phosphorylation levels were monitored through the detection of oligomerization signals generated upon TIFAsome assembly. Both donor and acceptor antibodies recognize TIFA and will generate a TR-FRET signal when bound to the same TIFA oligomer formed upon TIFA phosphorylation. […] The TR-FRET signals were calculated as the ratio of the acceptor and donor emission signals with the formula below:
ALPK1 kinase activity was calculated as follows: % Activity = 100% × (TR-FRET signal of test compound - mean TR-FRET signal of no ATP 1% DMSO control) / (mean TR-FRET signal of 1% DMSO control – mean TR-FRET signal of no ATP 1% DMSO control).
In multi-dose assays, compound activity was calculated via logarithmic interpolation. Concentration-response curves were fitted with a four-parameter logistic nonlinear regression model and the IC50 values for these compounds were calculated in GraphPad Prism 6.
Turning to `COc1ccccc1CNC(=O)Nc1nc(C(C)(C)c2cccc(Br)c2)cs1` [Compound 6], the “HTRF Assay (IC50)” value is “No activity”.

As for `COc1ccccc1CNC(=O)Nc1nc(C2(c3ccccc3)CCC2)cs1` [Compound 8], the “HTRF Assay (IC50)” value was “No activity”.

As to `COc1ccccc1CNC(=O)Nc1nc(C2(c3ccccc3)CC2)cs1` [Compound 7], the “HTRF Assay (IC50)” value is recorded as “No activity”.

The assay is the same for the next values; noted with them: read-out: HTRF Assay (IC50); 6.25 µM ATP, 20 nM ADP-D-heptose.
Usually IC50 stands for the concentration that inhibits the measured activity by half. Regarding `C#CC(C)(c1csc(NC(=O)c2c(F)cc(N3CCNCC3)cc2F)n1)c1ccc(Cl)cc1F` (stereo not shown) [Compound 65], the half-inhibitory concentration (IC50) worked out at 0.077 µM.

With `COc1cccc2sc(NC(=O)c3c(F)cc(N4CCN(CCO)CC4)cc3F)nc12` [Compound 42], the IC50 stood at 5.31 µM.

With `COc1cccc2sc(NC(=O)c3c(F)cc(N4CCC(N)C4)cc3F)nc12` (stereo not shown) [Compound 38], the IC50 turned out to be 0.125 µM.

Take `COc1cccc2sc(NC(=O)c3c(F)cc(N4CCNC(C)C4)cc3F)nc12` (stereo not shown) [Compound 44]: the IC50 came out at 0.349 µM.

For `C#CC(C)(c1ccc(Cl)cc1)c1csc(NC(=O)c2c(F)cc(N3CCN(C)CC3)cc2F)n1` (stereo not shown) [Compound 51], the IC50 stood at 0.425 µM.

For the compound `COc1cccc2sc(NC(=O)c3c(F)cc(OCCO)cc3F)nc12` [Compound 40], the IC50 amounted to 0.56 µM.

In the case of `COc1ccccc1CNC(=O)Nc1nc(C(C)(C)c2ccccc2)cs1` [Compound 4], the IC50 was found to be 2.2 µM.

For the compound `COCCNC(=O)Nc1nc(C(C)(C)c2ccc(Br)cc2)cs1` [Compound 28], the IC50 stood at 1.13 µM.

`C#CC(C)(c1ccc(Cl)cc1)c1csc(NC(=O)c2c(F)cc(N3CCNCC3CO)cc2F)n1` (stereo not shown) [Compound 56]: the 50% inhibitory concentration (IC50) amounted to 0.02 µM.

Consider `C#CC(CC)(c1ccc(Cl)cc1)c1csc(NC(=O)c2c(F)cc(N3CCNCC3)cc2F)n1` (stereo not shown) [Compound 66], for which the IC50 is 0.083 µM.

Regarding `O=C(Nc1nc(Cc2ccccn2)cs1)c1c(F)cc(N2CCNCC2)cc1F` [Compound 60], the IC50 was 1.27 µM.

With `CC(C)(c1ccc(F)cc1)c1csc(NC(=O)NCc2ccc(N3CCNCC3)cc2)n1` [Compound 14], the IC50 was found to be 0.915 µM.

For the compound `COc1cc(CNC(=O)Nc2nc(C(C)(C)c3ccc(Br)cc3)cs2)ccc1N1CCNCC1` [Compound 26], the IC50 amounted to 0.161 µM.

On to `O=C(NCc1ccccc1)Nc1nc(C2(c3ccccc3)CCCC2)cs1` [Compound 1], for which the IC50 turned out to be 5 µM.

`CC(C)(c1ccccc1)c1csc(NC(=O)NCc2ccccc2)n1` [Compound 3]: the IC50 is 2.1 µM.

Take `C#CC(C)(c1ccc(Cl)cc1)c1csc(NC(=O)c2c(F)cc(N3CCC(N)C3)cc2F)n1` (stereo not shown) [Compound 54]: the IC50 is 0.031 µM.

With `COc1ccc(C(C)(C)c2csc(NC(=O)NCc3ccc(N4CCNCC4)c(F)c3)n2)cc1` [Compound 21], the IC50 amounted to 0.084 µM.

For the compound `C#CC(C)(c1ccc(Cl)cc1)c1csc(NC(=O)c2ccc(N3CCNCC3)cc2F)n1` (stereo not shown) [Compound 48], the IC50 amounted to 0.151 µM.

As to `C#CC(C)(c1ccc(Cl)cc1)c1csc(NC(=O)c2c(Cl)cc(N3CCNCC3)cc2Cl)n1` (stereo not shown) [Compound 53], the IC50 came to 0.312 µM.

Turning to `CC(c1ccc(Cl)cc1)c1csc(NC(=O)c2c(F)cc(N3CCNCC3)cc2F)n1` (stereo not shown) [Compound 59], the IC50 amounted to 0.27 µM.

Take `CC(C)(c1ccc(Br)cc1)c1csc(NC(=O)NCc2ccc(N3CCNCC3)c(F)c2)n1` [Compound 23]: the IC50 was determined as 0.138 µM.

As to `CC#CC(C)(c1ccc(Cl)cc1)c1csc(NC(=O)c2c(F)cc(N3CCNCC3)cc2F)n1` (stereo not shown) [Compound 69], the half-inhibitory concentration (IC50) came to 0.045 µM.

In the case of `C#CC(C)(c1ccc(Cl)cc1)c1csc(NC(=O)c2c(F)ccc(OC)c2F)n1` (stereo not shown) [Compound 47], the IC50 was found to be 1.55 µM.

As for `COCC(C)(c1ccc(Cl)cc1)c1csc(NC(=O)c2c(F)cc(N3CCNCC3)cc2F)n1` (stereo not shown) [Compound 74], the IC50 worked out at 0.042 µM.

`CC(C)(c1ccc(I)cc1)c1csc(NC(=O)NCc2ccc(N3CCNCC3)cc2)n1` [Compound 15]: the IC50 turned out to be 0.284 µM.

Consider `C#CC(C)(c1ccc(F)cc1)c1csc(NC(=O)c2c(F)cc(N3CCNCC3)cc2F)n1` (stereo not shown) [Compound 64], for which the IC50 came to 0.014 µM.

Consider `COCC(C)(c1ccccc1)c1csc(NC(=O)c2c(F)cc(N3CCNCC3)cc2F)n1` (stereo not shown) [Compound 62], for which the 50% inhibitory concentration (IC50) stood at 0.182 µM.

Take `CC(C)(c1ccc(C#N)cc1)c1csc(NC(=O)NCc2ccc(N3CCNCC3)cc2)n1` [Compound 13]: the IC50 amounted to 0.236 µM.

As for `COc1cccc2sc(NC(=O)c3c(F)cc(N4CCNCC4)cc3F)nc12` [Compound 43], the IC50 amounted to 0.209 µM.

As for `CC(C)(c1ccccc1)c1csc(NC(=O)NCc2ccccc2)n1` [Compound 2], the IC50 is 2.5 µM.

With `COCC(C)(c1ccc(Cl)cc1)c1csc(NC(=O)NCCO)n1` (stereo not shown) [Compound 33], the IC50 is 0.558 µM.

On to `CC(C)(c1ccc(Cl)cc1)c1csc(NC(=O)NCc2ccc(N3CCNCC3)cc2)n1` [Compound 11], for which the IC50 turned out to be 0.044 µM.

For the compound `C#CC(C)(c1ccc(Cl)c(F)c1)c1csc(NC(=O)c2c(F)cc(N3CCNCC3)cc2F)n1` (stereo not shown) [Compound 67], the IC50 was found to be 0.017 µM.

In the case of `C#CC(C)(c1ccc(Br)cc1)c1csc(NC(=O)NCCO)n1` (stereo not shown) [Compound 29], the IC50 amounted to 0.071 µM.

On to `COc1ccc(C(C)(C)c2csc(NC(=O)NCc3ccc(N4CCNCC4)cc3)n2)cc1` [Compound 20], for which the IC50 worked out at 0.122 µM.

As for `C#CC(C)(c1ccc(Cl)cc1)c1csc(NC(=O)c2ccc(N3CCNCC3)nc2)n1` (stereo not shown) [Compound 46], the IC50 was found to be 0.167 µM.

For `COc1cccc2sc(NC(=O)c3c(F)cc(N4CCN(Cc5ccccc5)C(=O)C4)cc3F)nc12` [Compound 36], the IC50 stood at 0.321 µM.

`COc1cccc2sc(NC(=O)c3c(F)cc(NCCN(C)C)cc3F)nc12` [Compound 37]: the IC50 was 0.507 µM.

For `COc1cccc2sc(NC(=O)c3c(F)cc(N4CCC(O)C4)cc3F)nc12` (stereo not shown) [Compound 39], the half-inhibitory concentration (IC50) is 3.19 µM.

As to `COc1ccccc1CNC(=O)Nc1nc(C(C)(C)c2ccc(Br)cc2)cs1` [Compound 5], the IC50 was 1.1 µM.

Turning to `C#CC(C)(c1ccc(OC(F)F)cc1)c1csc(NC(=O)c2c(F)cc(N3CCNCC3)cc2F)n1` (stereo not shown) [Compound 73], the IC50 is 0.073 µM.

Take `COc1ccccc1CNC(=O)Nc1nc(C(C)c2ccccc2)cs1` (stereo not shown) [Compound 9]: the IC50 was 3.75 µM.

For the compound `CC(C)(c1ccc(F)cc1)c1csc(NC(=O)c2c(F)cc(N3CCNCC3)cc2F)n1` [Compound 61], the IC50 came to 0.023 µM.

As for `C#CC(C)(c1ccc(Br)cc1)c1csc(NC(N)=O)n1` (stereo not shown) [Compound 30], the IC50 was 0.13 µM.

As to `CCC(C)(c1ccc(Br)cc1)c1csc(NC(=O)NCc2ccc(N3CCNCC3)cc2)n1` (stereo not shown) [Compound 19], the IC50 was 0.429 µM.

Turning to `CC(C)(c1ccc(OC(F)(F)F)cc1)c1csc(NC(=O)NCc2ccc(N3CCNCC3)cc2)n1` [Compound 10], the IC50 was found to be 1.13 µM.

Consider `C#CC(C)(c1ccc(OC)cc1)c1csc(NC(N)=O)n1` (stereo not shown) [Compound 31], for which the IC50 worked out at 0.094 µM.

Take `CC(C)(c1ccc(Br)cc1)c1csc(NC(=O)NCc2ccc(N3CCNCC3)c(Cl)c2)n1` [Compound 24]: the IC50 stood at 0.233 µM.

With `O=C(NCc1ccc(N2CCNCC2)cc1)Nc1nc(C(CO)c2ccc(Br)cc2)cs1` (stereo not shown) [Compound 16], the IC50 was found to be 5.62 µM.

For `C#CC(C)(c1ccc(Cl)cc1)c1csc(NC(=O)c2c(F)cc(N3CCNC(CO)C3)cc2F)n1` (stereo not shown) [Compound 55], the IC50 turned out to be 0.317 µM.

Consider `CCOCC(C)(c1ccccc1)c1csc(NC(=O)c2c(F)cc(N3CCNCC3)cc2F)n1` (stereo not shown) [Compound 75], for which the IC50 was found to be 0.642 µM.

Turning to `COc1cccc2sc(NC(=O)c3c(F)cccc3F)nc12` [Compound 35], the IC50 turned out to be 1.3 µM.

As for `C#CC(C)(c1ccc(Cl)cc1)c1csc(NC(N)=O)n1` (stereo not shown) [Compound 34], the IC50 was 0.048 µM.

Turning to `CC(C)(c1ccc(C2CC2)cc1)c1csc(NC(=O)NCc2ccc(N3CCNCC3)cc2)n1` [Compound 12], the IC50 turned out to be 0.155 µM.

As for `C#CC(C)(c1ccc(Cl)cc1)c1csc(NC(=O)c2c(F)cc(NCCO)cc2F)n1` (stereo not shown) [Compound 52], the IC50 turned out to be 0.405 µM.

With `COc1cccc2sc(NC(=O)c3c(F)cc(N4CCC(CO)CC4)cc3F)nc12` [Compound 41], the IC50 was 2.28 µM.

In the case of `C#CC(C)(c1ccc(C)cc1)c1csc(NC(=O)c2c(F)cc(N3CCNCC3)cc2F)n1` (stereo not shown) [Compound 68], the IC50 was found to be 0.013 µM.

As for `CC(C)(c1ccc(Br)cc1)c1csc(NC(=O)NCc2ccc(N3CCNCC3)cc2)n1` [Compound 18], the IC50 turned out to be 0.13 µM.

Turning to `C#CC(C)(c1ccc(OC)cc1)c1csc(NC(=O)c2c(F)cc(N3CCNCC3)cc2F)n1` (stereo not shown) [Compound 72], the IC50 is 0.018 µM.

Take `O=C(Nc1nc(C2(c3ccc(Br)cc3)CCCC2)cs1)c1c(F)cc(N2CCNCC2)cc1F` [Compound 63]: the 50% inhibitory concentration (IC50) amounted to 0.437 µM.

As to `C#CC(C)(c1ccc(Cl)cc1)c1csc(NC(=O)c2c(F)cc(N3CCNCC3CC)cc2F)n1` (stereo not shown) [Compound 58], the IC50 came out at 0.07 µM.

`CC(C)(c1ccc(O)cc1)c1csc(NC(=O)NCc2ccc(N3CCNCC3)cc2)n1` [Compound 22]: the 50% inhibitory concentration (IC50) was found to be 0.732 µM.

Regarding `CC(c1ccc(Cl)cc1)(c1csc(NC(=O)c2c(F)cc(N3CCNCC3)cc2F)n1)C1CC1` (stereo not shown) [Compound 71], the IC50 turned out to be 0.025 µM.

With `CC(c1ccccc1)(c1ccc(Cl)cc1)c1csc(NC(=O)c2c(F)cc(N3CCNCC3)cc2F)n1` (stereo not shown) [Compound 70], the IC50 came out at 0.577 µM.

As for `C#CC(CC)(c1ccc(Br)cc1)c1csc(NC(=O)NCCO)n1` (stereo not shown) [Compound 32], the IC50 stood at 0.886 µM.

For the compound `C#CC(C)(c1ccc(Cl)cc1)c1csc(NC(=O)c2ccc(N3CCNCC3)cc2)n1` (stereo not shown) [Compound 45], the IC50 stood at 0.038 µM.

For `Cc1cc(CNC(=O)Nc2nc(C(C)(C)c3ccc(Br)cc3)cs2)ccc1N1CCNCC1` [Compound 25], the IC50 was found to be 0.462 µM.

Take `CC(c1ccc(Br)cc1)c1csc(NC(=O)NCc2ccc(N3CCNCC3)cc2)n1` (stereo not shown) [Compound 17]: the half-inhibitory concentration (IC50) is 0.391 µM.

The same assay, now with this note: read-out: IC50 in TR-FRET assay; 6.25 µM ATP, 20 nM ADP-D-heptose.
With `COc1ccc(OC)c2sc(NC(=O)c3c(F)cccc3F)nc12` [Hit 2], the IC50 turned out to be 11 µM.

In the case of `Nc1nc(C2(c3ccccc3)CCCC2)cs1` [Hit 1], the IC50 is 4 µM.

The values above are taken from paper PMC12420824, “Discovery of a selective alpha-kinase 1 inhibitor for the rare genetic disease ROSAH syndrome” (Nature Communications, 2025).
